The subject of this data set is CCRIS mutagenicity, Ames/micronucleus/aberration tests. The data set is described as follows: CCRIS mutagenicity studies.
[1] abbreviates: Test System: AMES SALMONELLA TYPHIMURIUM, Strain/Indicator: TA98, Metabolic Activation: NONE, Method: STANDARD PLATE.
[2] abbreviates: Test System: AMES SALMONELLA TYPHIMURIUM, Strain/Indicator: TA98, Metabolic Activation: RAT, LIVER, S-9, AROCLOR 1254, Method: STANDARD PLATE.
[3] abbreviates: Test System: AMES SALMONELLA TYPHIMURIUM, Strain/Indicator: TA100, Metabolic Activation: NONE, Method: STANDARD PLATE.
The mark [4] stands for this setting: Test System: AMES SALMONELLA TYPHIMURIUM, Strain/Indicator: TA100, Metabolic Activation: RAT, LIVER, S-9, AROCLOR 1254, Method: STANDARD PLATE.
Where [5] appears, read: Test System: AMES SALMONELLA TYPHIMURIUM, Strain/Indicator: TA1535, Metabolic Activation: NONE, Method: STANDARD PLATE.
The mark [6] stands for this setting: Test System: AMES SALMONELLA TYPHIMURIUM, Strain/Indicator: TA1535, Metabolic Activation: RAT, LIVER, S-9, AROCLOR 1254, Method: STANDARD PLATE.
[7] abbreviates: Test System: AMES SALMONELLA TYPHIMURIUM, Strain/Indicator: TA1537, Metabolic Activation: NONE, Method: STANDARD PLATE.
Where [8] appears, read: Test System: AMES SALMONELLA TYPHIMURIUM, Strain/Indicator: TA1537, Metabolic Activation: RAT, LIVER, S-9, AROCLOR 1254, Method: STANDARD PLATE.
Setting [9] is: Test System: AMES SALMONELLA TYPHIMURIUM, Strain/Indicator: TA1538, Metabolic Activation: RAT, LIVER, S-9, AROCLOR 1254, Method: STANDARD PLATE.

Activity calls are given as the source filed them. How the calls were made is not given here.

In the case of `CN1C(=O)CN=C(c2ccccc2)c2cc(Cl)ccc21`, the mutagenic call is, setting by setting: (End Point: IN VITRO MICRONUCLEUS, Test System: V79 CELLS, Metabolic Activation: NONE) “active; positive”; (End Point: IN VIVO CHROMOSOMAL ABERRATIONS, Test System: PERIPHERAL BLOOD LYMPHOCYTES, Species: HUMAN, Strain/Sex: MALE, FEMALE, Route: IV) “inactive; negative”; (Test System: AMES SALMONELLA TYPHIMURIUM, Strain/Indicator: TA97, Metabolic Activation: HAMSTER, LIVER, S-9, AROCLOR 1254 (10 OR 30%), Method: PREINCUBATION) “inactive; negative”; (Test System: AMES SALMONELLA TYPHIMURIUM, Strain/Indicator: TA97, Metabolic Activation: NONE, Method: PREINCUBATION) “inactive; negative”; (Test System: AMES SALMONELLA TYPHIMURIUM, Strain/Indicator: TA97, Metabolic Activation: RAT, LIVER, S-9, AROCLOR 1254 (10 OR 30%), Method: PREINCUBATION) “inactive; negative”; (Test System: AMES SALMONELLA TYPHIMURIUM, Strain/Indicator: TA98, Metabolic Activation: HAMSTER, LIVER, S-9, AROCLOR 1254 (10 OR 30%), Method: PREINCUBATION) “inactive; negative”. Also, the mutagenic call was “inactive; negative” (Test System: AMES SALMONELLA TYPHIMURIUM, Strain/Indicator: TA98, Metabolic Activation: NONE, Method: PREINCUBATION); “inactive; negative” under setting [1]; “inactive; negative” (Test System: AMES SALMONELLA TYPHIMURIUM, Strain/Indicator: TA98, Metabolic Activation: RAT, LIVER, S-9, AROCLOR 1254 (10 OR 30%), Method: PREINCUBATION); “inactive; negative” under setting [2]; “inactive; negative” (Test System: AMES SALMONELLA TYPHIMURIUM, Strain/Indicator: TA100, Metabolic Activation: HAMSTER, LIVER, S-9, AROCLOR 1254 (10 OR 30%), Method: PREINCUBATION); “inactive; negative” (Test System: AMES SALMONELLA TYPHIMURIUM, Strain/Indicator: TA100, Metabolic Activation: NONE, Method: PREINCUBATION). Besides, the mutagenic call by setting is: under setting [3], “inactive; negative”; (Test System: AMES SALMONELLA TYPHIMURIUM, Strain/Indicator: TA100, Metabolic Activation: RAT, LIVER, S-9, AROCLOR 1254 (10 OR 30%), Method: PREINCUBATION) “inactive; negative”; under setting [4], “inactive; negative”; (Test System: AMES SALMONELLA TYPHIMURIUM, Strain/Indicator: TA1535, Metabolic Activation: HAMSTER, LIVER, S-9, AROCLOR 1254 (10 OR 30%), Method: PREINCUBATION) “inactive; negative”; (Test System: AMES SALMONELLA TYPHIMURIUM, Strain/Indicator: TA1535, Metabolic Activation: NONE, Method: PREINCUBATION) “inactive; negative”; under setting [5], “inactive; negative”. Further, the mutagenic call by setting is: (Test System: AMES SALMONELLA TYPHIMURIUM, Strain/Indicator: TA1535, Metabolic Activation: RAT, LIVER, S-9, AROCLOR 1254 (10 OR 30%), Method: PREINCUBATION) “inactive; negative”; under setting [6], “inactive; negative”; (Test System: AMES SALMONELLA TYPHIMURIUM, Strain/Indicator: TA1537, Metabolic Activation: HAMSTER, LIVER, S-9, AROCLOR 1254 (30%), Method: PREINCUBATION) “inactive; negative”; (Test System: AMES SALMONELLA TYPHIMURIUM, Strain/Indicator: TA1537, Metabolic Activation: NONE, Method: PREINCUBATION) “inactive; negative”; under setting [7], “inactive; negative”; (Test System: AMES SALMONELLA TYPHIMURIUM, Strain/Indicator: TA1537, Metabolic Activation: RAT, LIVER, S-9, AROCLOR 1254 (30%), Method: PREINCUBATION) “inactive; negative”. Also, the mutagenic call under setting [8] is “inactive; negative”.

`COC(=O)[C@@H]1O[C@@H]1c1ccccc1`: the mutagenic call reads like this: under setting [1], “inactive; negative”; under setting [3], “active; positive”; under setting [4], “inactive; negative”; under setting [6], “inactive; negative”; under setting [8], “inactive; negative”; under setting [9], “inactive; negative”.

For the molecule `CC(C)COS(C)(=O)=O`, the mutagenic call reads like this: (End Point: IN VITRO MICRONUCLEUS, Test System: MOUSE LYMPHOMA L5178Y CELLS, Metabolic Activation: NONE) “inactive; negative; significant increase at highly/excessively cytotoxic doses”; (End Point: IN VITRO MICRONUCLEUS, Test System: MOUSE LYMPHOMA L5178Y CELLS, Metabolic Activation: RAT, LIVER, S-9) “inactive; negative”; under setting [3], “active; positive”; (Test System: AMES SALMONELLA TYPHIMURIUM, Strain/Indicator: TA100, Metabolic Activation: RAT, LIVER, S-9, Method: STANDARD PLATE) “active; positive”.

`C=CC(=O)OCCCCCOC(=O)C=C`: the mutagenic call was “inactive; negative” under setting [1]; “inactive; negative” under setting [2]; “inactive; negative” (Test System: AMES SALMONELLA TYPHIMURIUM, Strain/Indicator: TA98, Metabolic Activation: RAT, LIVER, S-9, SODIUM PHENOBARBITAL, Method: STANDARD PLATE); “inactive; negative” under setting [3]; “inactive; negative” under setting [4]; “inactive; negative” (Test System: AMES SALMONELLA TYPHIMURIUM, Strain/Indicator: TA100, Metabolic Activation: RAT, LIVER, S-9, SODIUM PHENOBARBITAL, Method: STANDARD PLATE). In addition, the mutagenic call was “inactive; negative” under setting [5]; “inactive; negative” under setting [6]; “inactive; negative” (Test System: AMES SALMONELLA TYPHIMURIUM, Strain/Indicator: TA1535, Metabolic Activation: RAT, LIVER, S-9, SODIUM PHENOBARBITAL, Method: STANDARD PLATE); “inactive; negative” under setting [7]; “inactive; negative” under setting [8]; “inactive; negative” (Test System: AMES SALMONELLA TYPHIMURIUM, Strain/Indicator: TA1537, Metabolic Activation: RAT, LIVER, S-9, SODIUM PHENOBARBITAL, Method: STANDARD PLATE). Further, the mutagenic call is, setting by setting: (Test System: AMES SALMONELLA TYPHIMURIUM, Strain/Indicator: TA1538, Metabolic Activation: NONE, Method: STANDARD PLATE) “inactive; negative”; under setting [9], “inactive; negative”; (Test System: AMES SALMONELLA TYPHIMURIUM, Strain/Indicator: TA1538, Metabolic Activation: RAT, LIVER, S-9, SODIUM PHENOBARBITAL, Method: STANDARD PLATE) “inactive; negative”.

Values taken from PubChem BioAssay AID1259407 (Chemical Carcinogenesis Research Information System (CCRIS), 2018).
